Format in all cases: cell-based
One assay concerns E. coli DH5α. The assay can be described thus: Antibacterial activity: MIC and growth curve against E. coli DH5α in 96-well plate. To be noted: minimal inhibitory concentration against E. coli DH5α; 96-well plate, 5×10^5 CFU/mL, 37° C., judged after 8 h. The method in brief:
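MIC taken as lowest protein level with no bacterial growth, tracked by A600 every 30 min during 37 °C, 175 rpm culture. Two-fold protein series 50-12.5 μg/mL final, triplicate wells, against 5×10^5 CFU/mL of LB-washed mid-log cells.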

The subject of another assay is Pseudomonas aeruginosa. The assay can be described thus: MIC against Gram-negative bacteria: Pseudomonas aeruginosa. The method in brief:
(§1)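 The recombinant human-originated EGF domain proteins were serially diluted two-fold against bacteria at 5×10^5 CFU/mL in LB medium. After shaken incubation at 37° C, the lowest concentration with no bacterial growth was recorded as the MIC.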

The test system of the next assay is Citrobacter diversus. The experiment in a line: MIC against Gram-negative bacteria: Citrobacter diversus. A digest of the protocol: as §1
Another assay deals with Aeromonas hydrophila. The assay can be described thus: MIC against Gram-negative bacteria: Aeromonas hydrophila. A digest of the protocol:
as §1

Another assay deals with E. coli BL21. The assay can be described thus: MIC against Gram-negative bacteria: E. coli BL21. A digest of the protocol: as §1
Another assay relates to Klebsiella pneumonia. The assay can be described thus: MIC against Gram-negative bacteria: Klebsiella pneumonia. A digest of the protocol: as §1
A further assay has as its system Proteus vulgaris. The experiment in a line: MIC against Gram-negative bacteria: Proteus vulgaris. A digest of the protocol:
as §1

The test system of another assay is Proteus mirabilis. The assay can be described thus: MIC against Gram-negative bacteria: Proteus mirabilis. A digest of the protocol: as §1
A further assay has as its system Moraxella catarrhalis. The assay can be described thus: MIC against Gram-negative bacteria: Moraxella catarrhalis. The method in brief:
as §1

A further assay concerns Enterobacter cloacae. The experiment in a line: MIC against Gram-negative bacteria: Enterobacter cloacae. A digest of the protocol: as §1
In the next assay the test system is Serratia marcescens. The experiment in a line: MIC against Gram-negative bacteria: Serratia marcescens. A digest of the protocol:
as §1

Where [1] appears, read: 96-well plate, 5×10^5 CFU/mL, 37° C., 10 h.

Usually MIC stands for the least concentration at which growth counts as inhibited.

The substance “PRT618 (CDCDPAGIAGPCDAGRCVCKPAVTGERCDRCRSGYYNLDGGNPEGCTQ; listed as Homo sapiens)” returned an MIC against E. coli DH5α of 50 mg/L. Besides, the “MIC P. aeruginosa” value against Pseudomonas aeruginosa (setting [1]) amounted to 12.5 mg/L. The “MIC C. diversus” value against Citrobacter diversus (setting [1]) came out at 12.5 mg/L. Moreover, the “MIC A. hydrophila” value against Aeromonas hydrophila (setting [1]) was found to be 50 mg/L. In the assay on E. coli BL21 (setting [1]), the “MIC E. coli BL21” value turned out to be 25 mg/L. Further, the “MIC K. pneumonia” value in the assay with Klebsiella pneumonia (setting [1]) was 50 mg/L. Also, in the assay with Proteus vulgaris (setting [1]), the “MIC P. vulgaris” value is 50 mg/L. Moreover, in the assay on Proteus mirabilis (setting [1]), the “MIC P. mirabilis” value came to 12.5 mg/L. Besides, the “MIC M. catarrhalis” value in the assay with Moraxella catarrhalis (setting [1]) amounted to 50 mg/L. Further, the “MIC E. cloacae” value in the assay with Enterobacter cloacae (setting [1]) was found to be 12.5 mg/L. In addition, in the assay on Serratia marcescens (setting [1]), the “MIC S. marcescens” value turned out to be 25 mg/L.

“PRT547 (CQCHGHSDRCLPGSGVCVDCQHNTEGAHCERCQAGFVSSRDDPSAPCVS; listed as Homo sapiens)”: in the assay with E. coli DH5α, the MIC worked out at 25 mg/L. The “MIC against P. aeruginosa” value with Pseudomonas aeruginosa (setting [1]) stood at 25 mg/L. Also, in the assay on Citrobacter diversus (setting [1]), the “MIC against C. diversus” value was 25 mg/L. The “MIC against A. hydrophila” value against Aeromonas hydrophila (setting [1]) worked out at 12.5 mg/L. For the same substance, the “MIC against E. coli BL21” value against E. coli BL21 (setting [1]) was 12.5 mg/L. Further, in the assay with Klebsiella pneumonia (setting [1]), the “MIC against K. pneumonia” value is 50 mg/L. Moreover, in the assay on Proteus vulgaris (setting [1]), the “MIC against P. vulgaris” value was determined as 12.5 mg/L. Besides, the “MIC against P. mirabilis” value in the assay with Proteus mirabilis (setting [1]) was found to be 25 mg/L. In addition, in the assay on Moraxella catarrhalis (setting [1]), the “MIC against M. catarrhalis” value was found to be 50 mg/L. The “MIC against E. cloacae” value with Enterobacter cloacae (setting [1]) is 25 mg/L. The “MIC against S. marcescens” value with Serratia marcescens (setting [1]) turned out to be 25 mg/L.

For “PRT1421 (ATQSCNDLCEHFCVPNPDQPGSYSCMCETGYRLAADQHRCE; listed as Homo sapiens)”, the MIC in the assay with E. coli DH5α was 12.5 mg/L. Moreover, the “MIC against P. aeruginosa” value against Pseudomonas aeruginosa (Pseudomonas aeruginosa, 5×10^5 CFU/mL, 10 h cultivation at 37° C.) was 12.5 mg/L. Moreover, the “MIC against C. diversus” value against Citrobacter diversus (Citrobacter diversus, 5×10^5 CFU/mL, 10 h cultivation at 37° C.) came out at 25 mg/L. Besides, the “MIC against A. hydrophila” value against Aeromonas hydrophila (Aeromonas hydrophila, 5×10^5 CFU/mL, 10 h cultivation at 37° C.) is 50 mg/L. For the same substance, the “MIC against E. coli BL21” value against E. coli BL21 (E. coli BL21, 5×10^5 CFU/mL, 10 h cultivation at 37° C.) worked out at 50 mg/L. The “MIC against K. pneumonia” value against Klebsiella pneumonia (Klebsiella pneumonia, 5×10^5 CFU/mL, 10 h cultivation at 37° C.) was 50 mg/L. For the same substance, the “MIC against P. vulgaris” value with Proteus vulgaris (Proteus vulgaris, 5×10^5 CFU/mL, 10 h cultivation at 37° C.) was 12.5 mg/L. Also, in the assay with Proteus mirabilis (Proteus mirabilis, 5×10^5 CFU/mL, 10 h cultivation at 37° C.), the “MIC against P. mirabilis” value was 25 mg/L. In addition, the “MIC against M. catarrhalis” value against Moraxella catarrhalis (Moraxella catarrhalis, 5×10^5 CFU/mL, 10 h cultivation at 37° C.) worked out at 12.5 mg/L. Besides, the “MIC against E. cloacae” value in the assay on Enterobacter cloacae (Enterobacter cloacae, 5×10^5 CFU/mL, 10 h cultivation at 37° C.) came to 12.5 mg/L. The “MIC against S. marcescens” value against Serratia marcescens (Serratia marcescens, 5×10^5 CFU/mL, 10 h cultivation at 37° C.) came out at 25 mg/L.

“PRT182 (QQPICLSGCHEQNGYCSKPAECLCRPGWQGRLCN; listed as Homo sapiens)”: the MIC against E. coli DH5α amounted to 12.5 mg/L. Further, the “MIC (μg/mL) P. aeruginosa” value in the assay with Pseudomonas aeruginosa (P. aeruginosa, 10 h cultivation at 37° C., 5×10^5 CFU/mL) worked out at 25 µg/mL. In addition, the “MIC (μg/mL) C. diversus” value with Citrobacter diversus (C. diversus, 10 h cultivation at 37° C., 5×10^5 CFU/mL) is 25 µg/mL. Moreover, in the assay on Aeromonas hydrophila (A. hydrophila, 10 h cultivation at 37° C., 5×10^5 CFU/mL), the “MIC (μg/mL) A. hydrophila” value turned out to be 12.5 µg/mL. Further, in the assay with E. coli BL21 (E. coli BL21, 10 h cultivation at 37° C., 5×10^5 CFU/mL), the “MIC (μg/mL) E. coli BL21” value worked out at 12.5 µg/mL. Moreover, the “MIC (μg/mL) K. pneumonia” value in the assay with Klebsiella pneumonia (K. pneumonia, 10 h cultivation at 37° C., 5×10^5 CFU/mL) was determined as 12.5 µg/mL. For the same substance, the “MIC (μg/mL) P. vulgaris” value against Proteus vulgaris (P. vulgaris, 10 h cultivation at 37° C., 5×10^5 CFU/mL) amounted to 12.5 µg/mL. For the same substance, the “MIC (μg/mL) P. mirabilis” value with Proteus mirabilis (P. mirabilis, 10 h cultivation at 37° C., 5×10^5 CFU/mL) was determined as 25 µg/mL. Moreover, in the assay on Moraxella catarrhalis (M. catarrhalis, 10 h cultivation at 37° C., 5×10^5 CFU/mL), the “MIC (μg/mL) M. catarrhalis” value was 100 µg/mL. Further, the “MIC (μg/mL) E. cloacae” value against Enterobacter cloacae (E. cloacae, 10 h cultivation at 37° C., 5×10^5 CFU/mL) stood at 25 µg/mL. Besides, the “MIC (μg/mL) S. marcescens” value in the assay on Serratia marcescens (S. marcescens, 10 h cultivation at 37° C., 5×10^5 CFU/mL) amounted to 25 µg/mL.

Take “PRT1013 (LEDPCPPSFCSKRGRCHIQASGRPQCSCMPGWTGEQCQ; listed as Homo sapiens)”: the MIC was determined as 12.5 mg/L with E. coli DH5α; 12.5 mg/L in the assay with Pseudomonas aeruginosa (P. aeruginosa, 10 h cultivation at 37° C.); 12.5 mg/L against Citrobacter diversus (C. diversus, 10 h cultivation at 37° C.); 12.5 mg/L against Aeromonas hydrophila (A. hydrophila, 10 h cultivation at 37° C.); 12.5 mg/L in the assay on E. coli BL21 (E. coli BL21, 10 h cultivation at 37° C.); 25 mg/L in the assay with Klebsiella pneumonia (K. pneumonia, 10 h cultivation at 37° C.). For the same substance, the MIC in the assay on Proteus vulgaris (P. vulgaris, 10 h cultivation at 37° C.) is 25 mg/L; in the assay on Proteus mirabilis (P. mirabilis, 10 h cultivation at 37° C.), 12.5 mg/L; against Moraxella catarrhalis (M. catarrhalis, 10 h cultivation at 37° C.) it was 25 mg/L; in the assay on Enterobacter cloacae (E. cloacae, 10 h cultivation at 37° C.), 12.5 mg/L; against Serratia marcescens (S. marcescens, 10 h cultivation at 37° C.), 50 mg/L.

Values taken from patent US9833497B2, “Human originated EGF domain proteins and use of the same” (CHENGDU SOURCEBIO LIMITED-LIABILITY COMPANY, priority 2013, dated 2017).
